The values that follow come from paper PMC11990924, “Inhibition of Tyrosinase and Melanogenesis by Carboxylic Acids: Mechanistic Insights and Safety Evaluation” (Molecules, 2025).

The structures appear in SMILES notation. Some results are limits rather than exact numbers.

The target in one series is T1, tyrosinase (Agaricus bisporus, UniProt C7FF04).
T1 construct: purchased Sigma-Aldrich
Kind of series: Kinetic analysis of tyrosinase (Lineweaver–Burk). It is filed as biochemical, mushroom. The note with it: for Ki: GraphPad Prism, mixed-model or competitive model, read-out: inhibition constant (Ki); for inhibition mechanism: Lineweaver–Burk double-reciprocal plots; for inhibition constant (KIS) for enzyme–substrate complex: mixed-type inhibitors. As to the method:
L-DOPA solutions at various concentrations (0.5, 1, 2, and 4 mM) were prepared in PBS buffer (pH 7.4) and mixed with carboxylic acids at different concentrations and tyrosinase (final concentration of 60 U/mL). […] The reaction rates were calculated based on the OD values. To analyze the inhibition types of the four carboxylic acids on tyrosinase, double-reciprocal Lineweaver–Burk plots were constructed with 1/v (reaction rate) as the y-axis and 1/[S] (substrate concentration) as the x-axis. The maximum reaction velocity (Vmax) and Michaelis constant (Km) were determined using GraphPad Prism 10 (GraphPad Software, Massachusetts, USA).

Series [1] can be described thus: Cell viability of B16-F10 by MTT. It is filed as cell-based. The note with it: mouse, B16-F10 cells, 6 mM. As to the method: B16-F10 cells were seeded in 96-well plates at a density of 1 × 10^5 cells/mL and cultured at 37 °C with 5% CO2 for 24 h. Subsequently, various concentrations of carboxylic acids were added, and the cells were further incubated for 24 h. Then, 6 μL of MTT (5 mg/mL) was added, and the cells were cultured for an additional 4 h. Afterward, 200 μL of DMSO was added to dissolve the formazan crystals by gently pipetting up and down. The absorbance at 570 nm (OD570) was measured using a microplate reader (Infinite 200Pro, Tecan), with deionized water serving as the control. The cell viability was calculated with Equation (2): (2) [(OD570 of sample)/OD570 of control]×100%

A further series relates to B16-F10 cells. As to the kind of experiment: Melanin content analysis of B16-F10 cells (α-MSH stimulated). It is filed as cell-based. The settings on record: Mus musculus; 6 mM, B16-F10, α-MSH 1 μM, 48 h; read-out: melanin inhibition rate. As to the method: A 900 μL cell suspension with an approximate density of 50% confluence was seeded into a 12-well plate and cultured for 24 h at 37 °C with 5% CO2. Subsequently, various concentrations of carboxylic acids were added, and the cells were further incubated for 1 h. Then, 1 μL of 1 mM α-melanocyte-stimulating hormone (α-MSH) solution was added to achieve a final concentration of 1 μM, and the cells were cultured for an additional 48 h at 37 °C with 5% CO2 to stimulate melanogenesis. Afterward, the cells were digested with trypsin, collected by centrifugation at 10,000 rpm for 5 min (Andreas Hettich GmbH & Co., KG, Tuttlingen, Germany), and the supernatant was discarded. Each tube was treated with 200 μL of 1 M NaOH solution and incubated in a water bath at 60 °C for 20 min. Following incubation, the samples were vortexed to ensure homogeneity, and 200 μL of each sample was transferred to a 96-well plate. The absorbance at 405 nm (OD405) was measured using a microplate reader (Infinite 200Pro, Tecan), and the data were recorded to calculate the melanin content, with deionized water serving as the control. The reduction in melanin content was calculated with Equation (3):(3) [(OD405 of control−OD405 of sample)/OD405 of control]×100%

Series [2] addresses tyrosinase from BioVision, Inc. (claimed to be of human origin). On the set-up: method as in PMID 38909081. The note with it: cited from earlier work.
For a further series, the system named is rabbits and mice. The note with it: in vivo; cited from earlier work.

T1 sequence (C7FF04 1-392 limits assumed): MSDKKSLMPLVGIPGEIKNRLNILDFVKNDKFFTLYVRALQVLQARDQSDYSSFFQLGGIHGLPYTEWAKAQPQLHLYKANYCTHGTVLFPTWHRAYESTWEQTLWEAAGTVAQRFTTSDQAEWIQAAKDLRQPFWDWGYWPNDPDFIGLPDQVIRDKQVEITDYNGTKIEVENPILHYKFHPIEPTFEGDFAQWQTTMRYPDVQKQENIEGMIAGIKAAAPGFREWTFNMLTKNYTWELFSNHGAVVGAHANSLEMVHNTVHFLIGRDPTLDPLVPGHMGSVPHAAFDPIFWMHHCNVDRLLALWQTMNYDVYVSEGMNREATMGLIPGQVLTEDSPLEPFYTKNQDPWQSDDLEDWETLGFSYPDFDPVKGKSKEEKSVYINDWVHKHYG

One may read the Ki as a dissociation constant, usually derived from enzyme kinetics or from competition with a known ligand. As a reminder, the viability is a read-out of living cells in per cent, often relative to untreated cells. A higher viability goes with less harm to the cells. The inhibition is the percentage by which the read-out fell short of the control. For the compound `O=C(O)C(O)Cc1ccccc1` (stereo not drawn) [3-phenyllactic acid], at tyrosinase, the Ki is 1570 µM, the inhibition mechanism entry is “mixed-type inhibition” and the “inhibition constant (KIS) for enzyme–substrate complex” value is 8.526 mM. This compound yielded a viability at 24 h, 6 mM in series [1] of over 90%. For the same compound, the inhibition at 6000 µM in the series with B16-F10 cells was found to be 27.2%.
By IC50 is commonly meant the concentration that gives 50% inhibition. Turning to `O=C(O)CC(O)C(=O)O` (stereo not drawn) [malic acid], on tyrosinase, the Ki came to 606 µM, the inhibition mechanism entry was “mixed-type inhibition” and the “inhibition constant (KIS) for enzyme–substrate complex” value amounted to 3.066 mM. In series [1], this compound gave a viability at 24 h, 6 mM of over 90%. Also, the IC50 in series [2] was 87.5 µM. The inhibition at 6000 µM in the series with B16-F10 cells amounted to 33.6%. In addition, the “oral LD50” value in the series with rabbits and mice is 1600 to 3200 mg/kg.
